A word on the IC50: it is the midpoint of a concentration-inhibition curve.

Peptide text beside a SMILES is read from it. * marks the point of attachment. Cbz = O=C(OCc1ccccc1)*; CH2F = FC*

This is an account of results in article PMC2784364, “VX-166: a novel potent small molecule caspase inhibitor as a potential therapy for sepsis” (Critical Care, 2009).

For experiment [1], the system named is Jurkat cells. The experiment is described as follows: Anti-Fas induced apoptosis in Jurkat cells, Annexin V. Particulars: Fas-induced apoptosis, readout not specified, data not shown; read-out: IC50 in Fas-assay. In kind it is cell-based, human. Here is the method:
Jurkat cells were obtained from LGC Standards (Teddington, UK) and were grown in RPMI 1640, 10% FCS, 2 mM L-glutamine, 100 U/ml penicillin and 0.1 mg/ml streptomycin (all from Sigma Aldrich Ltd., Poole, UK) at 37°C in 5% CO2/95% humidity. Receptor- or stress-mediated apoptosis (2 × 10^5 cells/ml) was induced by addition of either anti-Fas antibody CH-11 (10 ng/ml, Millipore UK Ltd., Watford, UK), TNF-α (20 ng/ml, R&D Systems, Abingdon, UK) with cycloheximide (112 ng/ml, Sigma Aldrich Ltd., Poole, UK) or staurosporine (350 ng/ml, Sigma Aldrich Ltd., Poole, UK). VX-166 was diluted into DMSO (10 mM), further diluted in media and added at a range of concentrations. Cells were then incubated for 18 hours. Apoptotic cells were then labelled with Cy5-conjugated Annexin-V (BD Biosciences, Oxford, UK) and detected using a FMAT™ 8100 Fluorimetric Microassay Technology Reader (Applied Biosystems, Warrington, UK). For the experiments using anti-Fas antibody, apoptosis was additionally measured using a Cell Death Detection ELISA kit (Roche Diagnostics Ltd., Lewes, UK) following the manufacturer's instructions.

The test system of experiment [2] is IL-2 release from activated T-cells. On the set-up: method as in PMID 10601363. Particulars: 50 μM; cited from earlier work.
For experiment [3], the system named is IL-2 release from peripheral blood mononuclear cells. The experiment is described as follows: IL-2 release from anti-CD3/CD28 stimulated PBMC. In kind it is cell-based, human. Particulars: anti-CD3/CD28 stimulated human PBMC, 24 hours; read-out: IC50, inhibition of IL-2 release. Here is the method:
PBMC from healthy donors were isolated as described above. To the wells of a 96-well plate previously coated with 1.5 μg/ml anti-hCD3 (Serotec, Kidlington, UK), 5 × 10^5 cells/ml and 1 μg/ml anti-hCD28 (BD Biosciences, Oxford, UK) were added. Plates were then incubated for 24 hours in the presence or absence of VX-166 or the calcineurin inhibitor FK506 (Merck Biosciences Ltd., Nottingham, UK). IL-2 release into the supernatant was subsequently determined by ELISA (R&D Systems, Abingdon, UK) following the manufacturer's instructions.

Turning to `COC(=O)C[C@H](NC(=O)[C@H](C)NC(=O)[C@@H](NC(=O)OCc1ccccc1)C(C)C)C(=O)CF` [zVAD-FMK, reference compound] (Cbz-Val-Ala-Asp(OMe)-CH2F), in experiment [1], the IC50 was 230 nM. For the same compound, in experiment [2], the “block of IL-2 release from activated T-cells” value was “block IL-2 release”. `C=CC[C@@H]1/C=C(\C)C[C@H](C)C[C@H](OC)[C@H]2O[C@@](O)(C(=O)C(=O)N3CCCC[C@H]3C(=O)O[C@H](/C(C)=C/[C@@H]3CC[C@@H](O)[C@H](OC)C3)[C@H](C)[C@@H](O)CC1=O)[C@H](C)C[C@@H]2OC` [FK506, reference compound]: in experiment [3], the IC50 turned out to be 0.2 nM. With IETD-FMK, the “block of IL-2 release from activated T-cells” value in experiment [2] is “block IL-2 release”.
